Experimental data: patent US20220105124A1, “METHODS FOR TARGETED TREATMENT AND PREDICTION OF PATIENT SURVIVAL IN CANCER” (University of Florida Research Foundation, Incorporated, priority 2019, published 2022)

Tested on: GBM cells with high VDR expression
Assay: Treating GBM cells with high VDR expression with vitamin D
Type: cell-based
Conditions: GBM cells with high VDR expression treated with vitamin D
From the text: The influence of vitamin D is also examined for its role the link between VDR (vitamin D receptor) and GBM prognosis. Addition of vitamin D is used to determine if vitamin D will direct VDR to a beneficial pro-immune function of liganded VDR. Removal of vitamin D is used to determine if vitamin D deficiency leads to harmful pro-tumor unliganded VDR signal.

Question: How did the Sox2 expression turn out when Vitamin D was run?
Answer: signal from VDR, leading to lower Sox2,

Question: And the VDR expression?
Answer: unaffected.

Question: And the “abnormal signal from VDR” value?
Answer: cells with vitamin D reduces this abnormal
